Laboratory results published in US6479531B1, “Gastrin and cholecystokinin receptor ligands” (James Black Foundation Limited, priority 1998, dated 2002).

Key:
CCKB receptor = target: T1, CCKB receptor (Mus musculus, UniProt P56481); assay: CCKB receptor radioligand binding assay in mouse cortical membranes; details: [125I]-CCK8(S) 200 pM, 150 min at 21±3°, read-out: CCKB pKi (converted)
T1 construct: The whole brains from male mice (CD1 22-25 g; Charles River) were removed; from tissue; host or cells: cerebral cortex membranes of male CD1 mice
T1 sequence (P56481 1-453): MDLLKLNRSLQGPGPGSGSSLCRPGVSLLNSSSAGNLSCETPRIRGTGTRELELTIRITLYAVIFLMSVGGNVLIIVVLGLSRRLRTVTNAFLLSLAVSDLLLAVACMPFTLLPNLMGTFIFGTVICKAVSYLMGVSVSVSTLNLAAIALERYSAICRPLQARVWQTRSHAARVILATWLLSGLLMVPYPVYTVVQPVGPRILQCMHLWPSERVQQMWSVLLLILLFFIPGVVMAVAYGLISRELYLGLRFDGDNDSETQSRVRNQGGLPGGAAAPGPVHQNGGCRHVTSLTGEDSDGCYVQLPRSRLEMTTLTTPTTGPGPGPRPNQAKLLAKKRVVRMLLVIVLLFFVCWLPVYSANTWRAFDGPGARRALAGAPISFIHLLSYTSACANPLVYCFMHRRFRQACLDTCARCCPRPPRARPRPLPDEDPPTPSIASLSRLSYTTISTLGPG
How it was run: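 Bound radioactivity was gamma-counted after rapid GF/B filtration and cold 50 mM Tris-HCl (pH 7.4) washes. The tissue was cerebral cortex from male CD1 mice, prepared as twice-centrifuged membranes in pH 7.2 HEPES/NaCl/KCl/MgCl2/EDTA buffer with bacitracin at 20 mg/ml original wet weight.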

gastrin receptor = target: T2, gastrin receptor (Rattus norvegicus, UniProt P30553); assay: gastrin antagonist activity in immature rat stomach assay (pentagastrin dose-response, acid secretion); details: isolated immature rat stomach, cumulative pentagastrin dose-response curves, read-out: Gastrin pKb (converted)
T2 construct: The stomach was excised and flushed with ca. 1 ml of unbuffered physiological saline solution; from tissue; host or cells: isolated whole stomach of immature rats (ca. 21 days old)
T2 sequence (P30553 1-452): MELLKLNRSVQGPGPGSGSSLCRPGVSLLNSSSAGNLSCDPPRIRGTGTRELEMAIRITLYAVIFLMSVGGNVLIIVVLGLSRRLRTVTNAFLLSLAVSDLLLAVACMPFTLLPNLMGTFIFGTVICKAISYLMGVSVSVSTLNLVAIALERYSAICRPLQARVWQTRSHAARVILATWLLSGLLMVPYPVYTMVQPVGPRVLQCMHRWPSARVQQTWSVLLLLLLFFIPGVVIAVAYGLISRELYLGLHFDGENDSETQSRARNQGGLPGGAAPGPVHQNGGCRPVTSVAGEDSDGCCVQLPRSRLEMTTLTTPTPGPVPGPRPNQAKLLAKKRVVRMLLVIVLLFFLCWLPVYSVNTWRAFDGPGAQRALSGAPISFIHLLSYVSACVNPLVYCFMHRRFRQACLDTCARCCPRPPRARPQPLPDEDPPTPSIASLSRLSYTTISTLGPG
How it was run: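 Gastrin antagonism was measured as the effect on cumulative pentagastrin dose-response curves of acid output, recorded by pH electrode in the perfusate of an excised immature rat stomach (ca. 21 days old). Test compound was placed in the serosal bath (37°, 3×10^−8 M 5-methylfurmethide) 60 min before pentagastrin.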

SMILES | Ki (CCKB receptor) | Kb (gastrin receptor)
Cc1ccc(NC(=O)c2nc(-c3cccc(Cl)c3Cl)[nH]c2CCC23CC4CC(CC(C4)C2)C3)cc1C(=O)O [Example 150, 5-{[5-(2-Adamantan-1-yl-ethyl)-2-(2,3-dichlorophenyl)-1H-imidazole-4-carbonyl]-amino}-2-methyl-benzoic Acid] | 145 nM | 646 nM
O=C(O)c1cccc(NC(=O)c2nc(-c3ccc(F)cc3)[nH]c2CCC23CC4CC(CC(C4)C2)C3)c1 [Example 54, 3-{[5-(2-Adamantan-1-yl-ethyl)-2-(4-fluoro-phenyl)-1H-imidazole-4-carbonyl]-amino}-benzoic Acid] | 309 nM | 813 nM
Cc1ccc(-c2nc(C(=O)Nc3cccc(C(=O)O)c3)c(CCC34CC5CC(CC(C5)C3)C4)[nH]2)c(C)c1 [Example 67, 3-{[5-(2-Adamantan-1-yl-ethyl)-2-(2,4-dimethyl-phenyl)-1H-imidazole-4-carbonyl]-amino}-benzoic Acid] | 83.2 nM | 10 nM
Cc1ccccc1-c1nc(C(=O)Nc2cccc(C(=O)O)c2)c(CC2CCCCCC2)[nH]1 [Example 165, 3-[(5-Cycloheptylmethyl-2-o-tolyl-1H-imidazole-4-carbonyl)-amino]-benzoic Acid] | 1820 nM | 123 nM
O=C(O)c1cccc(NC(=O)c2nc(C3CCCO3)[nH]c2CCC23CC4CC(CC(C4)C2)C3)c1 (centres unmarked) [Example 186, 3-{[5-(2-Adamantan-1-yl-ethyl)-2-(tetrahydro-furan-2-yl)-1H-imidazole-4-carbonyl]-amino}-benzoic Acid] | 155 nM | 11 nM
O=C(O)c1cccc(NC(=O)c2nc(-c3ccc(O)cc3)[nH]c2CCC23CC4CC(CC(C4)C2)C3)c1 [Example 63, 3-{[5-(2-Adamantan-1-yl-ethyl)-2(4-hydroxy-phenyl)-1H-imidazole-4-carbonyl]-amino}-benzoic Acid] | 1100 nM | 1620 nM
Cc1ccc(NC(=O)c2nc(C3CCC4CC3C4(C)C)[nH]c2CCC23CC4CC(CC(C4)C2)C3)cc1C(=O)O (centres unmarked) [Example 191, 5-{[5-(2-Adamantan-1-yl-ethyl)-2-(6,6-dimethyl-bicyclo[3.1.1]hept-2-yl)-1H-imidazole-4-carbonyl]-amino}-2-methyl-benzoic Acid] | 28.8 nM | 67.6 nM
O=C(O)c1cccc(NC(=O)c2nc(-c3cccc(Cl)c3Cl)[nH]c2CCC23CC4CC(CC(C4)C2)C3)c1 [Example 69, 3-{[5-(2-Adamantan-1-yl-ethyl)-2-(2,3-dichloro-phenyl)-1H-imidazole-4-carbonyl]-amino}-benzoic Acid] | 398 nM | 89.1 nM
O=C(O)c1cccc(NC(=O)c2nc(-c3ccccc3F)[nH]c2CCC2CCCCCC2)c1 [Example 43, 3-{[5-(2-Cycloheptyl-ethyl)-2-(2-fluoro-phenyl)-1H-imidazole-4-carbonyl]-amino}-benzoic Acid] | 851 nM | 63.1 nM
CC1(C)C2CCC(c3nc(C(=O)Nc4cccc(C(=O)O)c4)c(CCC45CC6CC(CC(C6)C4)C5)[nH]3)C1C2 (centres unmarked) [Example 190, 3-{[5-(2-Adamantan-1-yl-ethyl)-2-(6,6-dimethyl-bicyclo[3.1.1]hept-2-yl)-1H-imidazole-4-carbonyl]-amino}-benzoic Acid] | 174 nM | 4.17 nM
O=C(O)c1cccc(NC(=O)c2nc(-c3ccc(F)cc3F)[nH]c2CCC23CC4CC(CC(C4)C2)C3)c1 [Example 60, 3-{[5-(2-Adamantan-1-yl-ethyl)-2-(2,4-difluoro-phenyl)-1H-imidazole-4-carbonyl]-amino}-benzoic Acid] | 141 nM | 7.76 nM
CN1CCC[C@@H]1c1nc(C(=O)Nc2cccc(C(=O)O)c2)c(CCC23CC4CC(CC(C4)C2)C3)[nH]1 [Example 143] | 191 nM | 60.3 nM
O=C(O)c1cccc(NC(=O)c2nc(-c3ccc(Cl)cc3Cl)[nH]c2CCC23CC4CC(CC(C4)C2)C3)c1 [Example 146, 3-{[5-(2-Adamantan-1-yl-ethyl)-2-(2,4-dichlorophenyl)-1H-imidazole-4-carbonyl]-amino}-benzoic Acid] | 151 nM | 51.3 nM
O=C(O)c1cc(NC(=O)c2nc(C3CCCCC3)[nH]c2CCC23CC4CC(CC(C4)C2)C3)ccc1F [Example 254, 5-{[5-(2-Adamantan-1-yl-ethyl)-2-cyclohexyl-1H-imidazole-4-carbonyl]-amino}-2-fluoro-benzoic Acid] | 12.6 nM | 11.7 nM
Cc1ccc(NC(=O)c2nc(C3CCCCC3)[nH]c2CCC2C3CC4CC(C3)CC2C4)cc1C(=O)O (centres unmarked) [Example 173, 5-{[5-(2-Adamantan-2-yl-ethyl)-2-cyclohexyl-1H-imidazole-4-carbonyl]-amino}-2-methyl-benzoic Acid] | 6.17 nM | 4.79 nM
Cc1nc(C(=O)Nc2cccc(C(=O)O)c2)c(CCC23CC4CC(CC(C4)C2)C3)[nH]1 [Example 108, 3-{[5-(2-Adamantan-1-yl-ethyl)-2-methyl-1H-imidazole-4-carbonyl]-amino}-benzoic Acid] | 2340 nM | 1550 nM
CC(C)(C)Cc1nc(C(=O)Nc2cccc(C(=O)O)c2)c(CCC23CC4CC(CC(C4)C2)C3)[nH]1 [Example 111, 3-{[5-(2-Adamantan-1-yl-ethyl)-2-(2,2-dimethyl-propyl)-1H-imidazole-4-carbonyl]-amino}-benzoic Acid] | 91.2 nM | 41.7 nM
Cc1ccc(NC(=O)c2nc(-c3c(C)cccc3C)[nH]c2CCC23CC4CC(CC(C4)C2)C3)cc1C(=O)O [Example 153, 5-{[5-(2-Adamantan-1-yl-ethyl)-2-(2,6-dimethyl-phenyl)-1H-imidazole-4-carbonyl]-amino}-2-methyl-benzoic Acid] | 4.9 nM | 57.5 nM
CC1(c2nc(C(=O)Nc3ccc(F)c(C(=O)O)c3)c(CCC34CC5CC(CC(C5)C3)C4)[nH]2)CCCCC1 [Example 201, 5-{[5-(2-Adamantan-1-yl-ethyl)-2-(1-methyl-cyclohexyl)-1H-imidazole-4-carbonyl]-amino]-2-fluoro-benzoic Acid] | 8.71 nM | 4.9 nM
O=C(O)c1cccc(NC(=O)c2nc(CC3CCCCC3)[nH]c2CCC23CC4CC(CC(C4)C2)C3)c1 [Example 193, 3-{[5-(2-Adamantan-1-yl-ethyl)-2-cyclohexylmethyl-1H-imidazole-4-carbonyl]-amino}-benzoic Acid] | 57.5 nM | 20.4 nM
Cc1ccccc1-c1nc(C(=O)Nc2cccc(C(=O)O)c2)c(CCC23CC4CC(CC(C4)C2)C3)n1C [Example 73, 3-{[5-(2-Adamantan-1-yl-ethyl)-1-methyl-2-o-tolyl-1H-imidazole-4-carbonyl]-amino}-benzoic Acid] | 417 nM | 6.61 nM
O=C(O)c1cccc(NC(=O)c2[nH]c(C3CCCC3)nc2CCC23CC4CC(CC(C4)C2)C3)c1 [Example 196, 3-{[5-(2-Adamantan-1-ethyl)-2-cyclopentyl-1H-imidazole-4-carbonyl]-amino}-benzoic Acid] | 38 nM | 7.08 nM
Cc1ccccc1-c1nc(C(=O)Nc2cccc(C(=O)O)c2C)c(CCC23CC4CC(CC(C4)C2)C3)[nH]1 [Example 104, 3-{[5-(2-Adamantan-1-yl-ethyl)-2-o-tolyl-1H-imidazole-4-carbonyl]-amino}-2-methyl-benzoic Acid] | 129 nM | 42.7 nM
CC(C)C1CCC(c2nc(C(=O)Nc3cccc(C(=O)O)c3)c(CCC34CC5CC(CC(C5)C3)C4)[nH]2)CC1 (centres unmarked) [Example 194, 3-{[5-(2-Adamantan-1-yl-ethyl)-2-(4-isopropyl-cyclohexyl)-1H-imidazole-4-carbonyl]-amino}-benzoic Acid] | 158 nM | 525 nM
O=C(O)c1cccc(NC(=O)c2[nH]c(-c3ccccc3)nc2CCC23CC4CC(CC(C4)C2)C3)c1 [Example 47, 3-{[5-(2-Adamantan-1-yl-ethyl)-2-phenyl-1H-imidazole-4-carbonyl]-amino}-benzoic Acid] | 251 nM | 234 nM
